Reference: PubChem BioAssay (NCI)
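Method: 48-hour compound exposure of cells in 96-well plates, five concentrations, linear interpolation of endpoints. GI50 is the concentration that inhibits growth by half. At the TGI there is no net growth.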

Columns and labels:
Assay in all cases: growth of human tumour cells (NCI), 48 h
[1] = test system: COLO 205 colon
[2] = test system: A498 renal
[3] = test system: EKVX NSCLC
[4] = test system: TK-10 renal
[5] = test system: UACC-62 melanoma
[6] = test system: UACC-257 melanoma
[7] = test system: OVCAR-8 ovarian
[8] = test system: MDA-MB-435
[9] = test system: MCF7 breast
[10] = test system: T-47D breast

SMILES	GI50 [1]	TGI [1]	GI50 [2]	TGI [2]	GI50 [3]	TGI [3]	GI50 [4]	TGI [4]	GI50 [5]	TGI [5]	GI50 [6]	TGI [6]	GI50 [7]	TGI [7]	GI50 [8]	TGI [8]	GI50 [9]	TGI [9]	GI50 [10]	TGI [10]
COc1ccc2c(c1OC)C(=O)OC2C1c2c(c([N+](=O)[O-])c3c(c2OC)OCO3)CCN1C (centres undefined)	66.6 µM	> 100 µM	> 100 µM	> 100 µM	> 100 µM	> 100 µM	> 100 µM	> 100 µM	> 100 µM	> 100 µM	> 100 µM	> 100 µM	> 100 µM	> 100 µM	> 100 µM	> 100 µM	> 100 µM	> 100 µM	54.1 µM	> 100 µM
Cc1ccc(C2=Nc3ccccc3SC(c3cccc([N+](=O)[O-])c3)C2)cc1 (centres undefined)		> 100 µM		> 100 µM		> 100 µM		86.8 µM		> 100 µM		> 100 µM		71.2 µM		79.2 µM		> 100 µM		72.5 µM
CN1CCC(n2cnc(-c3ccc(F)cc3)c2-c2ccnc(N)n2)CC1	7.07 µM	> 25 µM	5.85 µM	> 23.5 µM	10.3 µM	> 25 µM	7.89 µM	> 25 µM	14.1 µM	> 25 µM	11.7 µM	> 25 µM	6.3 µM	> 25 µM	8.82 µM	> 25 µM	1.32 µM	> 25 µM	16 µM	> 25 µM
Cn1cncc1CC1COC(=O)C1C(O)c1ccccc1 (centres undefined)		> 100 µM		> 100 µM		> 100 µM		> 100 µM		> 100 µM		> 100 µM		> 100 µM		> 100 µM		> 100 µM		> 100 µM
Cn1cc(-c2nonc2-c2cn(C)c3ccccc23)c2ccccc21	2.54 µM	> 100 µM	0.337 µM		1.7 µM	> 100 µM	6.23 µM	> 100 µM	0.442 µM	> 100 µM	50.4 µM	> 100 µM	1.5 µM	> 100 µM	0.228 µM	0.635 µM	0.591 µM	> 100 µM	4.77 µM	> 100 µM
O=[N+]([O-])c1cc(S(=O)(=O)Oc2ccccc2)ccc1Cl	3.85 µM	14.4 µM	1.68 µM	4.05 µM	1.99 µM	4.07 µM	12.5 µM	25.1 µM	3.55 µM	13.5 µM	1.6 µM	3.1 µM	5.15 µM	19.7 µM	1.64 µM	3.09 µM	2.06 µM	4.31 µM	2.21 µM	5.38 µM
CN(CC(N)=O)C(=O)N(CCCl)N=O		> 100 µM		> 100 µM		> 100 µM		> 100 µM		> 100 µM		> 100 µM		> 100 µM		> 100 µM		> 100 µM		> 100 µM
O=C(Oc1cccnc1)c1ccsc1Nc1ccnc(C(F)(F)F)c1	4.89 µM	24.6 µM	31.1 µM	76.2 µM	34.2 µM	> 100 µM	4.91 µM	93.7 µM	44.8 µM	> 100 µM	10.5 µM	23.4 µM	4.14 µM	> 100 µM	2.88 µM	11.8 µM	3.51 µM	> 100 µM	13.8 µM	68 µM
Nc1ccc(-c2nc3ccccc3[nH]2)c2ccccc12	3.41 µM	24.6 µM	1.07 µM	15 µM	14.5 µM	> 100 µM	7.24 µM	> 100 µM	7.51 µM	> 27.6 µM	6.46 µM	> 100 µM	5.2 µM	65.1 µM	0.198 µM	0.812 µM	2.38 µM	> 100 µM	11.6 µM	> 61.6 µM
COC1O[C@@H]2C[C@H]3C(C)(C)CCC[C@]3(C)C3=CCCC1[C@@]32C (some centres undefined)	> 100 µM	> 100 µM	> 100 µM	> 100 µM	> 100 µM	> 100 µM	> 100 µM	> 100 µM	> 100 µM	> 100 µM	> 100 µM	> 100 µM	> 100 µM	> 100 µM	> 100 µM	> 100 µM	> 100 µM	> 100 µM	> 100 µM	> 100 µM
